Results on 4 molecules are retold here after ChEMBL document CHEMBL1133981, “Synthesis of a reported calpain inhibitor isolated from Streptomyces griseus” (Bioorg Med Chem Lett, 2001).

Structures are written as SMILES. Active and inactive are the calls of the source. The rule behind the calls is not given here.

Assay [1] concerns the target T1, Calpain-1 catalytic subunit (Homo sapiens, UniProt P07384).
T1 sequence (P07384 whole entry): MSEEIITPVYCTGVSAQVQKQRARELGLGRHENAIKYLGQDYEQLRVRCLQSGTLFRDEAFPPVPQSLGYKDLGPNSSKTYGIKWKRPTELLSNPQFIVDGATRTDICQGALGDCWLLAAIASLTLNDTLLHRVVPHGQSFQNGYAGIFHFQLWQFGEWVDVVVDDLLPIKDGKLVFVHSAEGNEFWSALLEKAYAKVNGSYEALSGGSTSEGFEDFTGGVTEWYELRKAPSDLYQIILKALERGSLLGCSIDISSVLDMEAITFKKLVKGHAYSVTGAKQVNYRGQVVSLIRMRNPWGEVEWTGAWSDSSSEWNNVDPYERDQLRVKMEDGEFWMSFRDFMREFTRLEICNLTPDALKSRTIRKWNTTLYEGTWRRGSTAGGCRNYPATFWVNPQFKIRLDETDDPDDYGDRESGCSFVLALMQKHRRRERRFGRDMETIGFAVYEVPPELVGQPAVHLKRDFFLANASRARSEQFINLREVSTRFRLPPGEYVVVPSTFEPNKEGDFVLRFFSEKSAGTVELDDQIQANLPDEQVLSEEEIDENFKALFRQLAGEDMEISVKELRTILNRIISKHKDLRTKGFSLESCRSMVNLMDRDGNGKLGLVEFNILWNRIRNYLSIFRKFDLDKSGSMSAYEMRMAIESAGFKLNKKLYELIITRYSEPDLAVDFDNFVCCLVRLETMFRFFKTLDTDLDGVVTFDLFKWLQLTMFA
The assay is described as follows: Compound was tested for its inhibitory activity against calpain […]. Further details: […].

In assay [2] the target is T2, Calpain small subunit 1 (Sus scrofa) (UniProt P04574).
T2 sequence (whole entry): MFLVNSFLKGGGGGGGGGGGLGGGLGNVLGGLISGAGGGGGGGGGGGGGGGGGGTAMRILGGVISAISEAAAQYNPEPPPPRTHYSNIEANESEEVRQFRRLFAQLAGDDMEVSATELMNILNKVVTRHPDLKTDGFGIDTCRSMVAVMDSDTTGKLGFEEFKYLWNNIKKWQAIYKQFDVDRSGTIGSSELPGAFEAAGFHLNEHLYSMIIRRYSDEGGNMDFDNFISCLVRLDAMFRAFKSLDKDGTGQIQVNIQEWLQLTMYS
The assay is described as follows: Compound was tested for its inhibitory activity against porcine erythrocyte Calpain 1 up to a concentration of 1 mM; NA=Not active.

The target of assay [3] is T1, Calpain-1 catalytic subunit. The assay is described as follows: Compound was tested for its inhibitory activity against calpain […] (SC488).

In assay [1], `CC(C)c1ncc(Cc2ccccc2)[nH]c1=O` came in with an IC50 of 1200 nM.

Turning to `CN1C(=O)[C@H](Cc2ccccc2)N(C)C(=O)[C@@H]1Cc1ccccc1`, the outcome in assay [2] was inactive. The same measure, in the same setting: in the case of `CN1C(=O)[C@H](Cc2ccccc2)N(C)C(=O)[C@H]1Cc1ccccc1` it was “inactive”.

On to `CN1C(=O)[C@H](Cc2ccc(O)cc2)N(C)C(=O)[C@@H]1Cc1ccc(O)cc1`, for which, in assay [2], the result was inactive. In addition, in assay [3], the IC50 was found to be 800 nM.

As usually defined, the IC50 is the midpoint of a concentration-inhibition curve. The low end stands for higher potency, the high end for lower potency.
